According to US20240207258A1, “HETEROCYCLIC PDK1 INHIBITORS FOR USE TO TREAT CANCER” (Viracta Therapeutics, Inc., priority 2015, published 2024):
Where two headings read alike, the source gives them in different places.

Key:
[1] = test system: CMK; experiment: MTS cell proliferation assay, CMK; assay type: cell-based; settings: Homo sapiens, 72 hr
Protocol: (§1) Cell proliferation was measured using the CellTiter 96 Aqueous Non-Radioactive Cell Proliferation Assay (Promega). The CellTiter 96® AQueous Assay is composed of solutions of a tetrazolium compound [3-(4,5-dimethylthiazol-2-yl)-5-(3-carboxymethoxyphenyl)-2-(4-sulfophenyl)-2H-tetrazolium, inner salt; MTS] and an electron coupling reagent (phenazine methosulfate) PMS. MTS is bioreduced by cells into a formazan product that is soluble in tissue culture medium. The absorbance of the formazan product at 490 nm can be measured directly from assay plates without additional processing. The quantity of formazan product as measured by the amount of 490 nm absorbance is directly proportional to the number of living cells in culture. Cells were seeded into 96-well or 384-well clear plates in a volume of 200 μL (96-well) or 50 μL (384-well) at optimized densities ranging from 1,000 to 40,000 cells per well for 96-well plates or 1,200 to 25,000 cells per well for 384-well plates depending on cell-line. After 4-6 hr recovery, serially diluted compounds in DMSO were added to the cells using (0.1% v/v final DMSO concentration). Cells were then grown at 37° C. in a humidified incubator with 5% CO2 for 72 hr. A 20:1 [3-(4,5-dimethylthiazol-2-yl)-5-(3-carboxymethoxyphenyl)-2-(4-sulfophenyl)-2H-tetrazolium](MTS):phenazine methosulfate (PMS) solution in DPBS was made immediately before use, added to each well, and cells were incubated for 1.5 hr at 37° C. The absorbance at 490 nm was then measured using a platereader. Absorbance values were normalized as percent of control (cells incubated in the presence of 0.1% v/v DMSO). Sigmoidal dose-response curves were plotted using log(inhibitor) vs. response—Variable slope (four parameters) model with a top value constrained to 100% (GraphPad Prism version 6.00 for Windows, GraphPad Software, La Jolla California USA). […] Curves for compounds that reached a plateau were matched exactly to the measurement points. […]

[2] = test system: Mec-1; experiment: MTS cell proliferation assay, Mec-1; assay type: cell-based; settings: Homo sapiens, MEC1; Mec-1, 72 hr
Protocol: as §1

[3] = test system: MV4-11; experiment: MTS cell proliferation assay, MV4-11; assay type: cell-based, human; settings: Homo sapiens; MV4-11, 72 hr; read-out: MTS proliferation assay
Protocol: (§2) Cell proliferation was measured using the CellTiter 96 Aqueous Non-Radioactive Cell Proliferation Assay (Promega). […] MTS is bioreduced by cells into a formazan product that is soluble in tissue culture medium. The absorbance of the formazan product at 490 nm can be measured directly from assay plates without additional processing. The quantity of formazan product as measured by the amount of 490 nm absorbance is directly proportional to the number of living cells in culture. Cells were seeded into 96-well or 384-well clear plates in a volume of 200 μL (96-well) or 50 μL (384-well) at optimized densities ranging from 1,000 to 40,000 cells per well for 96-well plates or 1,200 to 25,000 cells per well for 384-well plates depending on cell-line. After 4-6 hr recovery, serially diluted compounds in DMSO were added to the cells using (0.1% v/v final DMSO concentration). Cells were then grown at 37° C. in a humidified incubator with 5% CO2 for 72 hr. A 20:1 [3-(4,5-dimethylthiazol-2-yl)-5-(3-carboxymethoxyphenyl)-2-(4-sulfophenyl)-2H-tetrazolium](MTS):phenazine methosulfate (PMS) solution in DPBS was made immediately before use, added to each well, and cells were incubated for 1.5 hr at 37° C. The absorbance at 490 nm was then measured using a platereader. Absorbance values were normalized as percent of control (cells incubated in the presence of 0.1% v/v DMSO). Sigmoidal dose-response curves were plotted using log(inhibitor) vs. response—Variable slope (four parameters) model with a top value constrained to 100% (GraphPad Prism version 6.00 for Windows, GraphPad Software, La Jolla California USA). […] To determine potential of compounds of the invention to affect viability of hematological cancers, cell lines representing various tumor types were selected and tested. […] In addition, two murine cell lines were tested: A20 […].

[4] = test system: SU-DHL-6; experiment: MTS cell proliferation assay, SU-DHL-6; assay type: cell-based; settings: Homo sapiens; SU-DHL-6, 72 hr
Protocol: as §1

[5] = test system: U-2932; experiment: MTS cell proliferation assay, U-2932; assay type: cell-based; settings: Homo sapiens, U2932; U-2932, 72 hr
Protocol: (§3) Cell proliferation was measured using the CellTiter 96 Aqueous Non-Radioactive Cell Proliferation Assay (Promega). The CellTiter 96® AQueous Assay is composed of solutions of a tetrazolium compound [3-(4,5-dimethylthiazol-2-yl)-5-(3-carboxymethoxyphenyl)-2-(4-sulfophenyl)-2H-tetrazolium, inner salt; MTS] and an electron coupling reagent (phenazine methosulfate) PMS. MTS is bioreduced by cells into a formazan product that is soluble in tissue culture medium. The absorbance of the formazan product at 490 nm can be measured directly from assay plates without additional processing. The quantity of formazan product as measured by the amount of 490 nm absorbance is directly proportional to the number of living cells in culture. Cells were seeded into 96-well or 384-well clear plates in a volume of 200 μL (96-well) or 50 μL (384-well) at optimized densities ranging from 1,000 to 40,000 cells per well for 96-well plates or 1,200 to 25,000 cells per well for 384-well plates depending on cell-line. After 4-6 hr recovery, serially diluted compounds in DMSO were added to the cells using (0.1% v/v final DMSO concentration). Cells were then grown at 37° C. in a humidified incubator with 5% CO2 for 72 hr. A 20:1 [3-(4,5-dimethylthiazol-2-yl)-5-(3-carboxymethoxyphenyl)-2-(4-sulfophenyl)-2H-tetrazolium](MTS):phenazine methosulfate (PMS) solution in DPBS was made immediately before use, added to each well, and cells were incubated for 1.5 hr at 37° C. The absorbance at 490 nm was then measured using a platereader. Absorbance values were normalized as percent of control (cells incubated in the presence of 0.1% v/v DMSO). Sigmoidal dose-response curves were plotted using log(inhibitor) vs. response—Variable slope (four parameters) model with a top value constrained to 100% (GraphPad Prism version 6.00 for Windows, GraphPad Software, La Jolla California USA). […] Curves for compounds that reached a plateau were matched exactly to the measurement points. […] To determine potential of compounds of the invention to affect viability of hematological cancers, cell lines representing various tumor types were selected and tested. Human cell lines tested were: MOLM-13 (acute myeloid leukemia (AML)), MV4-11 (AML), U-2932 (ABC-diffuse large B cell lymphoma), U-937 (histiocytic lymphoma), U-266 (multiple myeloma), RPMI-8226 (multiple myeloma), CMK (megakaryoblastic cell line), SU-DHL-4 (GCB-diffuse large B cell lymphoma), KG1 (AML), Mec-1 (chronic B-cell leukemia), MOLM-16 (AML), Jeko (B-cell lymphoma), WSU-DLCL2 (B-cell lymphoma), JJN3 (plasma cell leukemia), SU-DHL-6 (GCB-diffuse large B cell lymphoma), and Z-138 (mantle cell lymphoma). In addition, two murine cell lines were tested: A20 […].

[6] = test system: JJN3; experiment: MTS cell proliferation assay, JJN3; assay type: cell-based; settings: Homo sapiens, JJN-3; JJN3, 72 hr
Protocol: as §1

[7] = test system: RPMI-8226; experiment: MTS cell proliferation assay, RPMI-8226; assay type: cell-based; settings: Homo sapiens; RPMI-8226, 72 hr
Protocol: as §3

[8] = test system: Z-138; experiment: MTS cell proliferation assay, Z-138; assay type: cell-based; settings: Homo sapiens; Z-138, 72 hr
Protocol: as §1

[9] = Oral pharmacokinetics in mice; assay type: in vivo; settings: for Tmax / bioavailability: mouse, in vivo, oral; for bioavailability: read-out: oral bioavailability % F
[10] = test system: hematologic tumor cell lines; experiment: MTS cell proliferation assay, panel of hematologic cancer cell lines; assay type: cell-based
Protocol: as §3

[11] = test system: C1498; experiment: MTS cell proliferation assay, C1498; assay type: cell-based, murine; settings: Mus musculus; for EC50: C1498, 72 hr, read-out: MTS proliferation assay
Protocol: as §2

[12] = test system: panel of 270 different human kinases; experiment: Kinase selectivity panel (Upstate/Millipore); assay type: biochemical; settings: 10 μM, panel of 270 kinases
Protocol: The selectivity of Compound 1 and Compound 2 was evaluated in a panel of 270 different human kinases offered by Upstate (now Millipore).

[13] = test system: Jeko; experiment: MTS cell proliferation assay, Jeko; assay type: cell-based; settings: Homo sapiens, 72 hr
Protocol: as §3

[14] = range against the various cell lines of Table 1, read-out: inhibition of cell proliferation EC50

C[C@H](NC(=O)c1nc(C#N)cnc1NCc1ccc(-c2cnc3[nH]nc(N)c3n2)cc1)c1ccc(F)c(F)c1 [Compound 1, 3-[4-(3-Amino-1H-pyrazolo[3,4-b]pyrazin-5-yl)-benzylamino]-6-cyano-pyrazine-2-carboxylic acid [1-(3,4-difluoro-phenyl)-ethyl]-amide]
EC50 [1]: 0.222 µM | EC50 [2]: 0.415 µM | EC50 [3]: 0.005 µM | EC50 [4]: 0.572 µM | EC50 [5]: 0.108 µM | EC50 [6]: 0.846 µM | EC50 [7]: 0.174 µM | EC50 [8]: 0.718 µM | half-life [9]: long half-life | Tmax [9]: 4 to 8 h | bioavailability [9]: > 40% | EC50 [10, 14]: 0.003 to 0.853 µM | EC50 [11]: 0.053 µM | number of kinases with inhibition greater than or equal to 90% (including PDK1) [12]: 18 | EC50 [13]: 0.286 µM

CNc1n[nH]c2ncc(-c3ccc(CNc4ncc(C#N)nc4C(=O)N[C@@H](C)c4ccc(F)c(F)c4)cc3)cc12 [Compound 2, 6-Cyano-3-[4-(3-methylamino-1H-pyrazolo[3,4-b]pyridin-5-yl)-benzylamino]-pyrazine-2-carboxylic acid [1-(3,4-difluoro-phenyl)-ethyl]-amide]
EC50 [1]: 0.182 µM | EC50 [2]: 0.215 µM | EC50 [3]: 0.007 µM | EC50 [4]: 0.476 µM | EC50 [5]: 0.056 µM | EC50 [6]: 0.453 µM | EC50 [7]: 0.163 µM | EC50 [8]: 0.684 µM | half-life [9]: long half-life | Tmax [9]: 4 to 8 h | bioavailability [9]: > 40% | fold more potent than GSK2334470 in viability assays ([10]; 72 hours viability assays): at least 10 fold | number of cell lines with growth inhibition at concentrations less than 500 nM ([10]; out of 16 cell lines): 15 | EC50 ([10]; panel of more than 20 cell lines derived from hematologic cancers, read-out: anti-proliferative activity EC50): 0.003 to 0.9 µM | EC50 [10, 14]: 0.003 to 0.853 µM | EC50 ([10]; range over 16 cell lines, FIG. 3, read-out: potency in the cell proliferation assay (EC50)): < 1 µM | inhibition at 0.2 µM ([11]; C1498, 200 nM, read-out: growth inhibition): 80% | EC50 [11]: 0.045 µM | number of kinases with inhibition greater than or equal to 90% (including PDK1) [12]: 20 | EC50 [13]: 0.279 µM
